Results published in patent US11344009B2, “All sterile males of culicine mosquitoes: a method of creation” (priority 2014, dated 2022).

Experiments:
[1] = test system: Ae. aegypti strain (Hanoi1); assay: Transient expression of long dsmRNA Tra-2 RNAi construct (AaKLC2.1-long-02) injected into embryos; female lethality induced by different Dox concentrations; assay type: in vivo, Aedes aegypti; conditions: for Hatched rate (hatched/injected embryos): 500 embryos injected with AaKLC2.1-long-02
Excerpt: In this example, we show the transient expression of a Tra-2 RNAi construct which created long dsmRNAs. The detail method to create this construct was described in Example 4. The promoter driving rtTA protein was AaKLC2.1. In the presence of doxycycline (Dox), Tet-On Advanced binds to the tetracycline response element in pTre-tight, and produces high-level tran-scription of the downstream gene. Ae. aegypti strain (Hanoi1) was fed on blood containing three different Dox concentrations to produce eggs containing different Dox doses (mg/litre). The construct named AaKLC2.1-long-02 after Maxiprep purification was diluted in 1^x injection buffer at 1.6 μg/μl. Embryos were desiccated briefly in 50 sec and stuck into a plastic cover slip via a piece of double sticky tape. The Voltalef oil was used to cover the embryos. After injection, the cover slip was then immediately transferred into a cover slip staining rack which was kept in a sealed plastic box with 100% humidity at 27° C. for 3-4 days and then hatched in Dox deoxygenated water. 500 embryos were injected in each Dox concentration. Larvae were reared under standard conditions. Three different Dox concentrations which were equivalent to the concentrations in blood meals were added to the rearing water. The sex ratio among survivors of each Dox concentration were shown in the below table.

Tra-2 = assay: Q-PCR of Tra-2 knockdown level in Tra-2 RNAi/Tet-on transgenic males induced by Dox; assay type: in vivo, Aedes aegypti
Method: (§1) The Ae. aegypti strain named Hanoi1 was transformed with a Tra-2 RNAi (long dsmRNA) construct. This construct was assembled with rtTA(pTet-on advanced) and pTre-tight regulatory system as mentioned in Example 1. The strain was challenged with Dox three different concentrations (0.3 mg/L; 3 mg/L and 30 mg/L) between the third larvae stage and 3 day old adult. The males from each Dox concentration challenge were divided into two groups; one group was Q-PCR to reveal the knockdown level of Tra-2. The other group was outcrossed with wild type females. Total RNA from Hanoi 1 wild type males and Tra-2 RNAi/Hanoi 1 transgenic males were isolated in pools of 5 males in 3 biological replicates. The primers used for Actin5C (endogenous reference gene) were F: (5′-[…]-3′) (SEQ ID NO: 53) and R: (5′-[…]-3′) (SEQ ID NO: 54) which produced a 125 bp fragment. Primers used for amplifying Tra-2, which produced a 125 bp fragment nearby the Tra-2 RNAi target site, were: Forward: (5′ […] 3′) (SEQ ID NO: 55) and Reverse: (5′ […] 3′) (SEQ ID NO: 56). Three biological replicates were carried out in each Dox condition. The knockdown of expression levels were calculated by the relative standard curve method (Applied Biosystems), in which Act5C as an endogenous reference and wild type Hanoi 1 as an exogenous calibrator. PCR cycle was 95° C. for 15 mins; 45 cycles of 10 sec at 95° C., 10 sec at XC, 20 sec at 72° C., plate reading. X is annealing temperature, of which 59° C. for the reference gene Actin5C and 55° C. was used for Tra-2 primers. […] 0.3 mg/L caused a slight difference in comparison with wild type (96.98% wild type). […] See details in FIG. 2.

[2] = test system: wMel Wolbachia in Ae. albopictus strains (Hanoi 1 and Laos2); assay: Dox challenge of Wolbachia trans-infected lines, PCR re-test for presence of Wolbachia (wsp primers 81F/691R); assay type: in vivo, Aedes albopictus; conditions: for Pupae (number from 50 3rd-4th larvae on Dox) / 3 day old adult (on Dox), number: Dox 30 mg/L; for 3 day old adult (on Dox), number: 4-5 days from third larvae to 3 day old adults; for 81F/691R PCR test, number with Wolbachia / 81F/691R PCR test, share with Wolbachia: after Dox 30 mg/L challenge
Method: Ae. albopictus strains (Hanoi 1 and Laos2) were trans-infected with Wolbachia from a Drosophila line (Oregon-R). This fly carries wMel Wolbachia. Drosophila embryos were collected as mentioned above. 1-2 day old virgin females were anaesthetized and microinjected directly in the thorax. […] These lines were maintained at a standard condition and challenged with the presence of Dox (30 mg/L) in 4-5 days from the third larvae to 3 day old adults. They were PCR re-tested for the presence of Wolbachia after the challenge using universal wsp primers 81F and 691R^38.

[3] = test system: Ae. aegypti strain Hanoi1 transformed with Tra-2 RNAi (long dsmRNA) construct; assay: Outcross of Dox-induced homozygous Tra-2 RNAi transgenic males with wild type virgin females, sex ratio of the crosses; assay type: in vivo, Aedes aegypti
Method: as §1
10 homozygous males (3 day old) from each concentration were crossed with 10 wild type virgin females.

`C[C@H]1c2cccc(O)c2C(=O)C2=C(O)[C@]3(O)C(=O)C(C(N)=O)=C(O)[C@@H](N(C)C)[C@@H]3[C@@H](O)[C@@H]21` [Dox, Doxycycline] was tested, and the Hatched rate ([1]; 0.3 mg of Dox/L) was “(24.4) %”, the “Hatched rate (hatched/injected embryos)” value ([1]; 0.3 mg of Dox/L) was 122/500 and the Hatched rate ([1]; 3 mg of Dox/L) was “(18.6) %”. The “Hatched rate (hatched/injected embryos)” value ([1]; 3 mg of Dox/L) was 93/500, the Hatched rate ([1]; 30 mg of Dox/L) was “(14.8) %” and the “Hatched rate (hatched/injected embryos)” value ([1]; 30 mg of Dox/L) was 74/500. For the same compound, the “Expression level of Tra-2 in males” value (Tra-2; Dox 0.3 mg/L, third larvae stage to 3 day old adult) was 96.98 % wild type, the “Expression level of Tra-2 in males” value (Tra-2; Dox 3 mg/L, third larvae stage to 3 day old adult) was 73.7 % wild type and the “Expression level of Tra-2 in males” value (Tra-2; Dox 30 mg/L, after 5 days treatment) was 33.26 % wild type. For the same compound, the “Pupae (number from 50 3rd-4th larvae on Dox)” value ([2]; wMel/Ae.albopictus Hanoi 1) was 50, the “3 day old adult (on Dox), number” value ([2]; wMel/Ae.albopictus Hanoi 1) was 49 and the “81F/691R PCR test, number with Wolbachia” value ([2]; wMel/Ae.albopictus Hanoi 1) was 49. The “81F/691R PCR test, share with Wolbachia” value ([2]; wMel/Ae.albopictus Hanoi 1) was 100%, the “Pupae (number from 50 3rd-4th larvae on Dox)” value ([2]; wMel/Ae.albopictus Laos2) was 50 and the “3 day old adult (on Dox), number” value ([2]; wMel/Ae.albopictus Laos2) was 50. The “81F/691R PCR test, number with Wolbachia” value ([2]; wMel/Ae.albopictus Laos2) was 50, the “81F/691R PCR test, share with Wolbachia” value ([2]; wMel/Ae.albopictus Laos2) was 100% and the “Hatch rate (value in brackets)” value ([3]; males induced at 0.3 mg/L Dox) was 95.40. For the same compound, the “Male ratio (value in brackets)” value ([3]; males induced at 0.3 mg/L Dox) was 51.53, the “Hatch rate (value in brackets)” value ([3]; males induced at 3 mg/L Dox) was 90.60 and the “Male ratio (value in brackets)” value ([3]; males induced at 3 mg/L Dox) was 64.88. The “Hatch rate (value in brackets)” value ([3]; males induced at 30 mg/L Dox) was 91.60 and the “Male ratio (value in brackets)” value ([3]; males induced at 30 mg/L Dox) was 93.47.
